Reference: patent US20060147456A1, “Induction of apoptosis in toll-like receptor expressing tumor cells” (priority 2004, published 2006)

How the values were obtained:
[1] = test system: phosphorylated Stat1 (tyrosine 701); assay: Western Blot of Cama-1 cell lysate for phosphorylated Stat1; assay type: cell-based, human; settings: 5 μg/ml Poly IC
Method: (§1) Cama-1 cells were lysed in 1% Nonidet-P40-containing buffer. 20 μg total protein was loaded per lane on SDS-Polyacrylamide gels (Invitrogen). Western Blots (WB) were performed with standard techniques using the antibodies described above. Anti IRAK-4 monoclonal antibodies were generated in the laboratory according to the protocol described in Fossiez et al., “T cell interleukin-17 induces stromal cells to produce proinflammatory and hematopoietic cytokines”, J. Exp. Med., vol. 183(6), pp. 2593-2603 (1996).
The involvement of type 1 interferon in TLR3 mediated apoptosis was evaluated. Cama-1 cells were incubated with 5 μg/ml Poly IC for either 0 hours, 1 hour, 6 hours, 18 hours or 24 hours. The presence of IFN-β, phosphorylated Stat1 (tyrosine 701) (P-Stat-1) and total Stat-1 in the cell lysate were analyzed by Western Blot.

[2] = test system: eye tumors; assay: Eye tumor development in TRP-Tag/IFNαβγR−/− mice; assay type: in vivo, mouse; settings: 100 μg/dose intravenous on days 21, 23, 25, 27 and 29
Method: We analyzed the effect of IFN on Poly IC induced apoptosis in vivo. TRP-Tag mice express SV40 T antigen in the retinal pigmented epithelium and typically develop eye tumors with complete penetrance within weeks from birth.
In these experiments, fourteen to sixteen TRP-Tag/IFNαβγR−/− mice per experiment (these are TPR-Tag mice that had been crossed to mice simultaneously deficient in the receptor for type I interferons (IFNαβR) and the receptor for type II interferon (IFNγR)) were treated on days 21, 23, 25, 27 and 29 by intravenous injections of either Poly IC (100 μg/dose) or PBS. The kinetics of visible eye tumor development was monitored 2-3 times per week.

[3] = test system: TLR3 mRNA; assay: TLR3 mRNA expression by RT-PCR in Cama-1 cells; assay type: cell-based, human; settings: 48 h
Method: Cama-1 cells were analyzed for TLR3 mRNA expression in response to Poly IC. Cama-1 cells were cultured in complete medium (DMEM F12 containing […] glucose and complemented with 2 mM L-glutamine, 10% fetal calf serum, 160 μg/mL gentalline, 2.5 mg/mL sodium bicarbonate) for 48 hours either alone or with LPS (5 μg/ml) and/or with Poly IC (5 μg/ml). The mRNA from each group of cells was extracted. The mRNA was then reverse-transcribed and PCR amplified for 35 cycles (as above in Example 1) with hTLR3 specific primers: TLR3F: […] (SEQ ID NO: 5) and TLR3R: […] (SEQ ID NO: 6). TLR3 mRNA could not be amplified from resting Cama-1 cells.
Amplified DNA from RT-PCR using hTLR3 specific primers was run on a gel.

[4] = test system: Caspase 3; assay: Western Blot for Caspase 3 in Cama-1 cells; assay type: cell-based, human; settings: Poly IC treatment
Method: as §1
We next addressed the role of caspases in apoptosis. Cama-1 cells were pre-incubated with 25 μM of the general caspase inhibitor z-VAD-fmk or DMSO for 1 hour before culture for 24 hours with or without 5 μg/ml Poly IC or 25 ng/ml TNF-α (used as a positive control). Apoptosis was measured by annexin V staining and expressed as a percentage of apoptotic cell in the culture.
In another experiment, lysates from cells obtained above were analyzed by Western Blot for cleavage of PARP, Caspase 3 and Caspase 8.

[5] = test system: human primary breast tumor cells; assay: Apoptosis by PI staining (subG0/G1 cells); assay type: cell-based; settings: 50 μg/ml Poly IC, 48 h; PBS 19.5%
Text: Human primary breast tumor sample was obtained from the Centre Léon Bérard (Lyon, France) in agreement with the Hospital bioethical protocols. A single cell suspension was obtained after digestion with Collagenase A (Sigma-Aldrich) and washes and enrichment in Human Epithelial Antigen (HEA) positive cells using HEA-microbeads (Mylteni Biotech, Bergisch Gladbach, Germany) according to manufacturer's instructions. The final single cell suspension contained more than 80% HEA positive cells and less than 2% CD4^+ hematopoietic contaminants.
Cell recovery after treatment with TLR ligands was measured by crystal violet staining (Sigma-Aldrich). Cells were plated at 10^4 cells/well in 96 well plates. […] Sub-diploid cells were detected by staining with 3 μg/mL propidium iodide (PI) (Molecular probes, Eugene, Oreg.), after overnight permeabilization in 70% ethanol. Fluorescence was analyzed by flow cytometry on a FACScalibur (Becton Dickinson, Mountain View, Calif.) equipped with a doublet-discrimination module and using Celiquest Pro software (Becton Dickinson).
We then tried to determine the effect that Poly IC has on human primary breast tumor cells. […] Apoptosis was measured by PI staining. […]

[6] = test system: IL-6; assay: IL-6 secretion by ELISA in siRNA transfected Cama-1 cells; assay type: cell-based, human; settings: 24 h with 5 μg/ml Poly IC, untreated 10
Method: IL-6 secretion was measured in culture supernatants by standard Enzyme-Linked Assay (ELISA) using a DuoSet ELISA kit according to manufacturer's instructions (R&D Systems).
In parallel, IL-6 concentration in the supernatants of siRNA transfected Cama-1 cells cultured for 24 hours either with or without 5 μg/ml of Poly IC was determined by ELISA. […] In the siRNA IRAK-4 group, untreated and treated cells had IL-6 concentrations (pg/ml/10^6 cells) of 10 and 40, respectively. In the siRNA TRAF6 group, untreated and treated cells had IL-6 concentrations (pg/ml/10^6 cells) of 10 and 20, respectively.

polyinosinic-polycytidylic acid [Poly IC]
time of maximum Stat1 phosphorylation [1]: 6 h | Stat1 phosphorylation ([1]; 0 to 24 hours): observed | delay of appearance of eye tumors compared to PBS [2]: up to 21 days | TLR3 mRNA expression ([3]; 5 μg/ml, agent alone): induced | TLR3 expression on gel ([3]; both Poly IC (5 μg/ml) and LPS (5 μg/ml)): showed TLR3 expression | caspase 3 activation [4]: activated | cells with low DNA content (subG0/G1 cells) [5]: 38.6% | IL-6 concentration in supernatant ([6]; scr group): 110 pg/ml/10^6 cells | IL-6 concentration in supernatant ([6]; siRNA IRAK-4 group): 40 pg/ml/10^6 cells | IL-6 concentration in supernatant ([6]; siRNA TRAF6 group): 20 pg/ml/10^6 cells
